Where a name gives a salt, the structure may show the parent alone.
Tests used:
CPXV [1] = test: microbe, parasite or virus in culture; type: cell-based
CPXV [2] = test: microbe, parasite or virus in culture; type: cell-based; details: Cowpox virus, Vero C1008, 24 h
VACV [3] = test: microbe, parasite or virus in culture; type: cell-based; details: Orthopoxvirus vaccinia, Huh-7, 24 h
VACV [4] = test: microbe, parasite or virus in culture; type: cell-based; details: Orthopoxvirus vaccinia, Vero C1008, 24 h
in vitro [5] = details: human
in vitro [6] = details: African green monkey

Compound | IC50 (CPXV [1]; hydrochloride) [nM] | IC50 (CPXV [1]; Cowpox virus, Huh-7, 24 h) [nM] | IC50 (CPXV [2]) [nM] | IC50 (VACV [3]) [nM] | IC50 (VACV [4]) [nM] | CC50 (in vitro [5]) [nM] | CC50 (in vitro [6]) [nM]
NC(=O)c1cn([C@@H]2O[C@H](CO)[C@@H](O)[C@H]2O)c2ncnc(N)c12 [Oya2, 4-amino-7-((2R,3R,4S,5R)-3,4-dihydroxy-5-(hydroxymethyl)tetrahydrofuran-2-yl)-7H-pyrrolo[2,3-d]pyrimidine-5-carboxamide hydrochloride] | 240 ± 10 | – | – | – | – | – | –
NC(=O)c1cn([C@@H]2O[C@H](CO)[C@@H](O)[C@H]2O)c2ncnc(N)c12 [Oya1, 4-amino-7-((2R,3R,4S,5R)-3,4-dihydroxy-5-(hydroxymethyl)tetrahydrofuran-2-yl)-7H-pyrrolo[2,3-d]pyrimidine-5-carboxamide] | – | 220 ± 10 | 200 ± 10 | 50 ± 10 | 20 ± 10 | > 600 | > 600
